Measured values as given in paper PMC11600199 (JACS Au, 2024).
≈ marks a conversion by molar mass, not a printed value.

Tests used:
[1] = human liver microsomes
[2] = Kinetic solubility in phosphate-buffered saline pH 7.4; conditions: 25 °C, pH 7.4, aqueous buffer, kinetic from dmso stock
[3] = Chemical stability in aqueous 1 M HCl or 1 M NaOH and on shelf storage; type: physicochemical; conditions: aqueous 1 M hydrochloric acid or aqueous 1 M sodium hydroxide, room temperature, 1 day
[4] = Experimental pKa; type: physicochemical; conditions: amine hydrochlorides

| Compound | CLint [1] | solubility kinetic at 2 h [2] | further results |
| --- | --- | --- | --- |
| CN(Cc1ccc(C(C)(C)C)cc1)Cc1cccc2ccccc12 [Butenafine] | 30 mg min^–1 μL^–1 | 10 µM (≈ 3.17 µg/mL) | – |
| CCc1cc(C)cc(CC)c1-c1c(OC(=O)C(C)(C)C)n2n(c1=O)CCOCC2 [Pinoxaden] | – | 358 µM (≈ 143 µg/mL) | – |
| FC(F)(F)C1(c2cccnc2)CCC1 [12a] | – | – | decomposition on treatment with acid or base [3]: did not lead to any decomposition |
| CC(C)(C)N.Cl [tert-butyl amine hydrochloride] | – | – | pKa (exp.) [4]: 10.69 |
| CC(C)N(Cc1ccccc1)C(=O)C(C)(C)C [Tebutam] | 57 mg min^–1 μL^–1 | 324 µM (≈ 75.6 µg/mL) | – |
| CC(C)(C)C(=O)NNCc1ccccc1 [Pivhydrazine] | – | ≥ 400 µM | – |
